# Literature values in patent US7160560B2, “Skin-care composition” (L'Oreal S.A., priority 2003, dated 2007).
# Tests used:
# [1] = test system: human keratinocytes
# [2] = test system: human dermal fibroblasts
smiles,measurement,setting,value
"CC1=N[C@H](C(=O)O)CCN1 [ectoin, (s)-1,4,5,6-tetrahydro-2-methyl-4-pyrimidinecarboxylic acid]",signaling cascade brought about by UVA-radiation,[1],inhibits
same,UVA radiation-induced formation of mitochondrial DNA mutations,[2],inhibits
